Assay: Biodistribution of the nano-emulsion of Example 1.1 in male mice (Tables 15 to 21)
Format: in vivo
Settings: FVB male mouse
Method: In the following examples, the radioactivity was counted with the TRiCarb Counter (Ref: Packard, Liquid Scintillation Analyzers; Models 2200CA).
Fluobeam 700 (Fluoptics) is the apparatus with which the whole of the organs from the biodistribution were analyzed in fluorescence as well as the one with which the biodistribution kinetics of the nano-emulsions were established in vivo. This imaging system allows viewing of the fluorescence in spectral bands from 700 to 850 nm for a 650 nm excitation. The apparatus consists of an electric case containing the laser of class 3B, its power supply and an optical head containing the CCD camera. […]

CCCCCCCCCCCCCCCCO[C@H]1CC[C@@]2(C)C(=CC[C@H]3[C@@H]4CC[C@H]([C@H](C)CCCC(C)C)[C@@]4(C)CC[C@@H]32)C1 [[3H]CHE, cholesteryl hexadecylether]
tracer in Adrenal gland (2 h): 10.16 percentage of the dose injected per gram of tissue
tracer in Adrenal gland (4 h): 16.96 percentage of the dose injected per gram of tissue
tracer in Adrenal gland (6 h): 13.399 percentage of the dose injected per gram of tissue
tracer in Adrenal gland (16 h): 32.89 percentage of the dose injected per gram of tissue
tracer in Adrenal gland (24 h): 17.41 percentage of the dose injected per gram of tissue
tracer in Adrenal gland (48 h): 25.12 percentage of the dose injected per gram of tissue
tracer in Adrenal gland (72 h): 46.41 percentage of the dose injected per gram of tissue
tracer in Brain (2 h): 0.35 percentage of the dose injected per gram of tissue
tracer in Brain (4 h): 0.23 percentage of the dose injected per gram of tissue
tracer in Brain (6 h): 0.24 percentage of the dose injected per gram of tissue
tracer in Brain (16 h): 0.18 percentage of the dose injected per gram of tissue
tracer in Brain (24 h): 0.11 percentage of the dose injected per gram of tissue
tracer in Brain (48 h): 0.10 percentage of the dose injected per gram of tissue
tracer in Brain (72 h): 0.11 percentage of the dose injected per gram of tissue
tracer in Fat (2 h): 1.14 percentage of the dose injected per gram of tissue
tracer in Fat (4 h): 0.74 percentage of the dose injected per gram of tissue
tracer in Fat (6 h): 1.234 percentage of the dose injected per gram of tissue
tracer in Fat (16 h): 1.70 percentage of the dose injected per gram of tissue
tracer in Fat (24 h): 0.83 percentage of the dose injected per gram of tissue
tracer in Fat (48 h): 0.94 percentage of the dose injected per gram of tissue
tracer in Fat (72 h): 0.70 percentage of the dose injected per gram of tissue
tracer in Heart (2 h): 9.84 percentage of the dose injected per gram of tissue
tracer in Heart (4 h): 7.57 percentage of the dose injected per gram of tissue
tracer in Heart (6 h): 8.52 percentage of the dose injected per gram of tissue
tracer in Heart (16 h): 8.50 percentage of the dose injected per gram of tissue
tracer in Heart (24 h): 5.76 percentage of the dose injected per gram of tissue
tracer in Heart (48 h): 6.05 percentage of the dose injected per gram of tissue
tracer in Heart (72 h): 7.83 percentage of the dose injected per gram of tissue
tracer in Intestine (2 h): 2.44 percentage of the dose injected per gram of tissue
tracer in Intestine (4 h): 1.98 percentage of the dose injected per gram of tissue
tracer in Intestine (6 h): 2.549 percentage of the dose injected per gram of tissue
tracer in Intestine (16 h): 5.19 percentage of the dose injected per gram of tissue
tracer in Intestine (24 h): 3.41 percentage of the dose injected per gram of tissue
tracer in Intestine (48 h): 3.50 percentage of the dose injected per gram of tissue
tracer in Intestine (72 h): 3.47 percentage of the dose injected per gram of tissue
tracer in Kidney (2 h): 5.29 percentage of the dose injected per gram of tissue
tracer in Kidney (4 h): 3.14 percentage of the dose injected per gram of tissue
tracer in Kidney (6 h): 3.336 percentage of the dose injected per gram of tissue
tracer in Kidney (16 h): 2.40 percentage of the dose injected per gram of tissue
tracer in Kidney (24 h): 1.80 percentage of the dose injected per gram of tissue
tracer in Kidney (48 h): 1.77 percentage of the dose injected per gram of tissue
tracer in Kidney (72 h): 1.82 percentage of the dose injected per gram of tissue
tracer in Liver (2 h): 22.67 percentage of the dose injected per gram of tissue
tracer in Liver (4 h): 17.25 percentage of the dose injected per gram of tissue
tracer in Liver (6 h): 22.609 percentage of the dose injected per gram of tissue
tracer in Liver (16 h): 40.91 percentage of the dose injected per gram of tissue
tracer in Liver (24 h): 30.93 percentage of the dose injected per gram of tissue
tracer in Liver (48 h): 24.53 percentage of the dose injected per gram of tissue
tracer in Liver (72 h): 24.97 percentage of the dose injected per gram of tissue
tracer in Lung (2 h): 5.08 percentage of the dose injected per gram of tissue
tracer in Lung (4 h): 2.98 percentage of the dose injected per gram of tissue
tracer in Lung (6 h): 3.771 percentage of the dose injected per gram of tissue
tracer in Lung (16 h): 5.31 percentage of the dose injected per gram of tissue
tracer in Lung (24 h): 2.88 percentage of the dose injected per gram of tissue
tracer in Lung (48 h): 3.02 percentage of the dose injected per gram of tissue
tracer in Lung (72 h): 3.04 percentage of the dose injected per gram of tissue
tracer in Muscle (2 h): 0.99 percentage of the dose injected per gram of tissue
tracer in Muscle (4 h): 0.56 percentage of the dose injected per gram of tissue
tracer in Muscle (6 h): 0.77 percentage of the dose injected per gram of tissue
tracer in Muscle (16 h): 0.97 percentage of the dose injected per gram of tissue
tracer in Muscle (24 h): 0.38 percentage of the dose injected per gram of tissue
tracer in Muscle (48 h): 0.63 percentage of the dose injected per gram of tissue
tracer in Muscle (72 h): 0.49 percentage of the dose injected per gram of tissue
tracer in Ovary (Ovary, 24 h): 1.71 percentage of the dose injected per gram of tissue
tracer in Pancreas (2 h): 1.64 percentage of the dose injected per gram of tissue
tracer in Pancreas (4 h): 1.50 percentage of the dose injected per gram of tissue
tracer in Pancreas (6 h): 1.67 percentage of the dose injected per gram of tissue
tracer in Pancreas (16 h): 1.92 percentage of the dose injected per gram of tissue
tracer in Pancreas (24 h): 1.31 percentage of the dose injected per gram of tissue
tracer in Pancreas (48 h): 0.99 percentage of the dose injected per gram of tissue
tracer in Pancreas (72 h): 1.12 percentage of the dose injected per gram of tissue
tracer in Salivary gland (2 h): 1.53 percentage of the dose injected per gram of tissue
tracer in Salivary gland (4 h): 1.26 percentage of the dose injected per gram of tissue
tracer in Salivary gland (6 h): 2.10 percentage of the dose injected per gram of tissue
tracer in Salivary gland (16 h): 2.68 percentage of the dose injected per gram of tissue
tracer in Salivary gland (24 h): 1.57 percentage of the dose injected per gram of tissue
tracer in Salivary gland (48 h): 2.07 percentage of the dose injected per gram of tissue
tracer in Salivary gland (72 h): 2.36 percentage of the dose injected per gram of tissue
tracer in Seminal gland (4 h): 0.50 percentage of the dose injected per gram of tissue
tracer in Seminal gland (6 h): 0.54 percentage of the dose injected per gram of tissue
tracer in Seminal gland (16 h): 0.64 percentage of the dose injected per gram of tissue
tracer in Seminal gland (24 h): 0.35 percentage of the dose injected per gram of tissue
tracer in Seminal gland (48 h): 0.35 percentage of the dose injected per gram of tissue
tracer in Seminal gland (72 h): 0.58 percentage of the dose injected per gram of tissue
tracer in Seminal glands (Seminal glands, 2 h): 0.79 percentage of the dose injected per gram of tissue
tracer in Spleen (2 h): 7.15 percentage of the dose injected per gram of tissue
tracer in Spleen (4 h): 5.31 percentage of the dose injected per gram of tissue
tracer in Spleen (6 h): 6.453 percentage of the dose injected per gram of tissue
tracer in Spleen (16 h): 9.19 percentage of the dose injected per gram of tissue
tracer in Spleen (24 h): 6.65 percentage of the dose injected per gram of tissue
tracer in Spleen (48 h): 11.18 percentage of the dose injected per gram of tissue
tracer in Spleen (72 h): 6.40 percentage of the dose injected per gram of tissue
tracer in Testicle (2 h): 1.36 percentage of the dose injected per gram of tissue
tracer in Testicle (4 h): 1.35 percentage of the dose injected per gram of tissue
tracer in Testicle (6 h): 2.000 percentage of the dose injected per gram of tissue
tracer in Testicle (16 h): 2.95 percentage of the dose injected per gram of tissue
tracer in Testicle (48 h): 2.97 percentage of the dose injected per gram of tissue
tracer in Testicle (72 h): 4.34 percentage of the dose injected per gram of tissue
